molecular target: T1, Human PIP4K2C (Homo sapiens, UniProt Q8TBX8); experiment: Enzyme binding assay (KINOMEscan), active site-directed competition binding; conditions: 11-point dose response, duplicate, top concentration 5 micromolar; read-out: Pip4k2c Kd: IC50
T1 construct: purchased Eurofins DiscoverX 87-0007-1094
T1 sequence (Q8TBX8 1-421): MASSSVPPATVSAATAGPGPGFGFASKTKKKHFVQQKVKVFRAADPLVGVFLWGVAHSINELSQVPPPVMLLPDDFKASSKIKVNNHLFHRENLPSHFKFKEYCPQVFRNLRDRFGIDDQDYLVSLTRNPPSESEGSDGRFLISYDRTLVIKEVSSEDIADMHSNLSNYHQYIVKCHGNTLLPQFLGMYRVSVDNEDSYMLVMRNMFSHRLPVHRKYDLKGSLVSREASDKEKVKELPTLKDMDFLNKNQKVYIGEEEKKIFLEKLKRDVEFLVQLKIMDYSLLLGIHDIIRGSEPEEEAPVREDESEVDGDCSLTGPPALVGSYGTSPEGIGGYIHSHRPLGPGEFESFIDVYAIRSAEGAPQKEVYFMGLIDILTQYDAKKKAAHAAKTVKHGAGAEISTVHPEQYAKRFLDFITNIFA
Outline: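 Active site-directed competition against immobilized ligand. 11-point dose response in duplicate, top concentration 5 micromolar; IC50 from Hill fit by Levenberg-Marquardt.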

Structure (SMILES) | IC50 [nM]
CC1CCCCN1c1nc(Nc2cncc(N3CCCC3=O)c2)ncc1Cl (stereo not drawn) [Compound 106, 1-(5-((5-chloro-4-(2-methylpiperidin-1-yl)pyrimidin-2-yl)amino)pyridin-3-yl)pyrrolidin-2-one] | < 500
O=C1CCCN1c1cncc(Nc2ncc(Cl)c(N3CCCC(c4ccccc4)C3)n2)c1 (stereo not drawn) [Compound 24, 1-(5-((5-chloro-4-(3-phenylpiperidin-1-yl)pyrimidin-2-yl)amino)pyridin-3-yl)pyrrolidin-2-one] | < 500
O=C(c1cccc(=O)[nH]1)N1CCCC(c2nc(Nc3cncc(N4CCCC4=O)c3)ncc2Cl)C1 (stereo not drawn) [Compound 161, 6-(3-(5-chloro-2-((5-(2-oxopyrrolidin-1-yl)pyridin-3-yl)amino)pyrimidin-4-yl)piperidine-1-carbonyl)pyridin-2(1H)-one] | < 500
O=C1CCCN1c1cncc(Nc2ncc(Cl)c(N3CCCC(C4CC4)C3)n2)c1 (stereo not drawn) [Compound 126, 1-(5-((5-chloro-4-(3-cyclopropylpiperidin-1-yl)pyrimidin-2-yl)amino)pyridin-3-yl)pyrrolidin-2-one] | < 500
O=C(C1COC1)N1CCCC(c2nc(Nc3cncc(N4CCCC4=O)c3)ncc2Cl)C1 (stereo not drawn) [Compound 160, 1-(5-((5-chloro-4-(1-(oxetane-3-carbonyl)piperidin-3-yl)pyrimidin-2-yl)amino)pyridin-3-yl)pyrrolidin-2-one] | < 500
O=C1CCCN1c1cncc(Nc2ncc(Cl)c(N3CCC[C@@H](c4ccccc4)C3)n2)c1 [Compound 43, (S)-1-(5-((5-chloro-4-(3-phenylpiperidin-1-yl)pyrimidin-2-yl)amino)pyridin-3-yl)pyrrolidin-2-one] | < 500
O=C1CCCN1c1cncc(Nc2ncc(Cl)c(N3CCOCC3)n2)c1 [Compound 107, 1-(5-((5-chloro-4-morpholinopyrimidin-2-yl)amino)pyridin-3-yl)pyrrolidin-2-one] | < 500
O=C1CCCN1c1cncc(Nc2ncc(Cl)c(N3CCCC(n4ccccc4=O)C3)n2)c1 (stereo not drawn) [Compound 156, 1-(1-(5-chloro-2-((5-(2-oxopyrrolidin-1-yl)pyridin-3-yl)amino)pyrimidin-4-yl)piperidin-3-yl)pyridin-2(1H)-one] | < 500
O=C1CCCN1c1cncc(Nc2ncc(Cl)c(N3C(=O)CC[C@H]3c3ccccc3)n2)c1 [29, Enant A] | < 500
Cn1cc(-c2nc(Nc3cncc(N4CCCC4=O)c3)ncc2Cl)cn1 [Compound 90, 1-(5-((5-chloro-4-(1-methyl-1H-pyrazol-4-yl)pyrimidin-2-yl)amino)pyridin-3-yl)pyrrolidin-2-one] | < 500
Cc1cc(-c2nc(Nc3cncc(N4CCCC4=O)c3)ncc2Cl)ccn1 [Compound 105, 1-(5-((5-chloro-4-(2-methylpyridin-4-yl)pyrimidin-2-yl)amino)pyridin-3-yl)pyrrolidin-2-one] | 500 to 1000
O=C1CCCN1c1cncc(Nc2ncc(Cl)c(-c3cccc(N4CCCCC4)c3)n2)c1 [Compound 38, 1-(5-((5-chloro-4-(3-(piperidin-1-yl)phenyl)pyrimidin-2-yl)amino)pyridin-3-yl)pyrrolidin-2-one] | < 500
O=C1CCCN1c1cncc(Nc2ncc(Cl)c(-c3cccc(C4CCCNC4)c3)n2)c1 (stereo not drawn) [Compound 30, 1-(5-((5-chloro-4-(3-(piperidin-3-yl)phenyl)pyrimidin-2-yl)amino)pyridin-3-yl)pyrrolidin-2-one] | < 500
O=C1CCCN1c1cncc(Nc2ncc(F)c(C3CCCN(C4CC4)C3)n2)c1 (stereo not drawn) [Compound 154, 1-(5-((4-(1-cyclopropylpiperidin-3-yl)-5-fluoropyrimidin-2-yl)amino)pyridin-3-yl)pyrrolidine-2-one] | < 500
O=C1N(c2cncc(Nc3ncc(Cl)c(-c4cccc(-c5ccccc5)c4)n3)c2)CCC12CCNCC2 [Compound 1, 2-(5-((4-([1,1′-biphenyl]-3-yl)-5-chloropyrimidin-2-yl)amino)pyridin-3-yl)-2,8-diazaspiro[4.5]decan-1-one] | < 500
O=C1CCCN1c1cncc(Nc2cc(-c3ccccc3)c(Cl)cn2)c1 [Compound 117, 1-(5-((5-chloro-4-phenylpyridin-2-yl)amino)pyridin-3-yl)pyrrolidin-2-one] | < 500
O=C1CCCN1c1cncc(Nc2ncc(Cl)c(-c3cccc(C4CCCC4)c3)n2)c1 [Compound 40, 1-(5-((5-chloro-4-(3-cyclopentylphenyl)pyrimidin-2-yl)amino)pyridin-3-yl)pyrrolidin-2-one] | < 500
O=C1CCCN1c1cncc(Nc2ncc(Cl)c(N3CCc4ccccc4C3)n2)c1 [Compound 128, 1-(5-((5-chloro-4-(3,4-dihydroisoquinolin-2(1H)-yl)pyrimidin-2-yl)amino)pyridin-3-yl)pyrrolidin-2-one] | < 500
O=C1CCCN1c1cncc(Nc2ncc(Cl)c(N3CCC(C4CCCCC4)C3)n2)c1 (stereo not drawn) [Compound 45, 1-(5-((5-chloro-4-(3-cyclohexylpyrrolidin-1-yl)pyrimidin-2-yl)amino)pyridin-3-yl)pyrrolidin-2-one] | 500 to 1000
O=C1CCCN1c1cncc(Nc2ncc(Cl)c(-c3cnn(C4CCCCC4)c3)n2)c1 [Compound 139, 1-[5-[[5-chloro-4-(1-cyclohexylpyrazol-4-yl)pyrimidin-2-yl]amino]-3-pyridyl]pyrrolidin-2-one] | < 500
CCCCC(=O)NC1CCCN(c2nc(Nc3cncc(N4CCCC4=O)c3)ncc2Cl)C1 (stereo not drawn) [Compound 110, N-(1-(5-chloro-2-((5-(2-oxopyrrolidin-1-yl)pyridin-3-yl)amino)pyrimidin-4-yl)piperidin-3-yl)pentanamide] | < 500

molecular target: T2, endogenous PIP4K2C C-terminally tagged with HiBiT peptide in MOLT-4 cells (Homo sapiens, UniProt Q8TBX8); experiment: HiBiT PIP4K2C degradation assay in MOLT-4 cells; type: cell-based; conditions: 24 hours, 10-point dose response, top concentration 10 micromolar, read-out: HiBIT-degradation MOLT4 PIP4k2C 24 hours DC50
T2 construct: to C-terminally tag endogenous PIP4K2C with HiBiT peptide; host or cells: MOLT-4 (CRISPR-Cas9 knock-in clone)
T2 sequence (Q8TBX8 1-421): T1 sequence (Q8TBX8 1-421)
Protocol: Following clonal selection, genotype was confirmed by Sanger sequencing. […] Nano-Glo® HiBiT Lytic Assay System was purchased from Promega (Madison, WI, Catalog number N3030). Cell culture flasks and 384-well microplates were purchased from Corning (Glendale, AZ).
To study PIP4K2C degradation, 384-well plates were plated with a 10-point dose response curve, 3-fold dilution, in duplicate with a top starting concentration of 10 micromolar. Subsequently 22,500 cells were added to each well and incubated at 37C in 5% CO2 for 24 hours. At the end of the incubation time, cells were treated with the Nano-Glo® HiBiT Lytic Detection System following the manufacturer's instructions. Luminescence was measured with a PHERAstar FSX plate reader (BMG Labtech, Cary, NC). The Levenberg-Marquardt algorithm was used to fit a Hill equation to dose-response data to calculate DC50 values (see Table 6).

Structure (SMILES) | DC50 [nM]
O=C1CCC(N2Cc3cc(OC4CCN(C(=O)CN5CCC(C(=O)Nc6cncc(Nc7ncc(Cl)c(-c8cccc(C9CC9)c8)n7)c6)CC5)CC4)ccc3C2=O)C(=O)N1 (stereo not drawn) [Compound 201, N-(5-((5-chloro-4-(3-cyclopropylphenyl)pyrimidin-2-yl)amino)pyridin-3-yl)-1-(2-(4-((2-(2,6-dioxopiperidin-3-yl)-1-oxoisoindolin-5-yl)oxy)piperidin-1-yl)-2-oxoethyl)piperidine-4-carboxamide] | < 500
O=C1CCC(N2Cc3cc(C4CCN(CC(=O)N5CCC6(CC5)CCN(c5cncc(Nc7ncc(Cl)c(-c8cccc(C9CC9)c8)n7)c5)C6=O)CC4)ccc3C2=O)C(=O)N1 (stereo not drawn) [Compound 207, 3-(5-(1-(2-(2-(5-((5-chloro-4-(3-cyclopropylphenyl)pyrimidin-2-yl)amino)pyridin-3-yl)-1-oxo-2,8-diazaspiro[4.5]decan-8-yl)-2-oxoethyl)piperidin-4-yl)-1-oxoisoindolin-2-yl)piperidine-2,6-dione] | < 500
O=C1CCC(Nc2ccc(C3CCN(CC(=O)N4CCC5(CC4)CCN(c4cncc(Nc6ncc(Cl)c(-c7cccc(C8CC8)c7)n6)c4)C5=O)CC3)cc2)C(=O)N1 (stereo not drawn) [Compound 206, 3-[4-[1-[2-[2-[5-[[5-chloro-4-(3-cyclopropylphenyl)pyrimidin-2-yl]amino]-3-pyridyl]-1-oxo-2,8-diazaspiro[4.5]decan-8-yl]-2-oxo-ethyl]-4-piperidyl]anilino]piperidine-2,6-dione] | < 500
O=C1CCC(N2Cc3c(OCCCCCCCC(=O)N4CCC5(CC4)CCN(c4cncc(Nc6ncc(Cl)c(-c7cccc(-c8ccccc8)c7)n6)c4)C5=O)cccc3C2=O)C(=O)N1 (stereo not drawn) [Compound 70, 3-(4-((8-(2-(5-((4-([1,1′-biphenyl]-3-yl)-5-chloropyrimidin-2-yl)amino)pyridin-3-yl)-1-oxo-2,8-diazaspiro[4.5]decan-8-yl)-8-oxooctyl)oxy)-1-oxoisoindolin-2-yl)piperidine-2,6-dione] | < 500
O=C1CCC(Nc2ccc(N3CCC(CC(=O)N4CCC5(CC4)CCN(c4cncc(Nc6ncc(Cl)c(N7CCC[C@@H](O)C7)n6)c4)C5=O)CC3)cc2)C(=O)N1 (stereo partly drawn) [Compound 176, 3-((4-(4-(2-(2-(5-((5-chloro-4-((R)-3-hydroxypiperidin-1-yl)pyrimidin-2-yl)amino)pyridin-3-yl)-1-oxo-2,8-diazaspiro[4.5]decan-8-yl)-2-oxoethyl)piperidin-1-yl)phenyl)amino)piperidine-2,6-dione] | < 500
O=C1CCC(N2Cc3cc(OCCCCCCCCN4CCC5(CC4)CCN(c4cncc(Nc6ncc(Cl)c(-c7cccc(-c8ccccc8)c7)n6)c4)C5=O)ccc3C2=O)C(=O)N1 (stereo not drawn) [Compound 56, 3-(5-((8-(2-(5-((4-([1,1′-biphenyl]-3-yl)-5-chloropyrimidin-2-yl)amino)pyridin-3-yl)-1-oxo-2,8-diazaspiro[4.5]decan-8-yl)octyl)oxy)-1-oxoisoindolin-2-yl)piperidine-2,6-dione] | < 500
